Assay results reported in patent US20260028334A1, “N-(3-(BENZO[B]THIOPHENE-2-CARBOXAMIDO)-PHENYL)-2,3-DIHYDROBENZO[B][1,4]DIOXINE-6-CARBOXAMIDE DERIVATIVES AND RELATED COMPOUNDS AS LACTATE/ATP PRODUCTION INHIBITORS FOR THE TREATMENT OF CANCER” (WMT Aktiengesellschaft, priority 2022, published 2026).

Tests used:
[1] = patients treated with the drug; cited from earlier work
[2] = system: ER stress markers CHAC and CHOP/DDIT3; assay: Gene expression analysis by qPCR (FIG. 8E-8AB); format: cell-based; settings: Panc02 and SKOV3 cells, 10 nM, 0.5, 1, 2 and 4 hours
Description: Cells were plated at 40,000 cells per ml in medium of high glucose DMEM (PAN) supplemented with 10% FBS (PAN), 2 mM glutamine-alanine (PAN), 2 mM pyruvate (Sigma) and 10 mL/L penicillin-streptomycin (PAN), and grown at 37° C. in 0.5% O2, 5% CO2 and 75% humidity. Next day, cells were induced with test compounds (FIG. 3: compounds of example 3/16, 3/8, 10 at 10 nM; FIG. 8E-8AB: compounds of example 3/16, 3/8, 10, 3/19, 30 and 30/2 at 10 nM) 0.5, 1, 2 and 4 hours, as well as with vehicle (DMSO) only. After this time, the cells were lysed according to protocol (Promega, SV 96 Total RNA Isolation System, #Z3505). After transferring the lysate to a 96-well-RNA binding plate, RNA was isolated and put at approx. 1 μg into cDNA synthesis using LunaScript RT SuperMix Kit (NEB, #E3010). The resulting cDNA was diluted 1:5 and used for qPCR Analysis (Taqman). Luna Universal Probe qPCR Master Mix (NEB, #M3004) is used as 2× reaction mix to which the diluted cDNA is added. The qPCR analysis was performed using QuantStudio™ 6 Flex real-time PCR systems (Thermo Fisher Scientific).
A set of primers plus probe for each gene of interest was purchased at IDT (Integrated DNA Technologies).

Panc02 and SKOV3 cells [3] = assay: Lactate production inhibition assay (FIGS. 8C and 8D); format: cell-based; settings: 48 hours treatment, 1.5 to 10000 nM
Text: (§1) Recombinant Lactate Dehydrogenase A (LDHA) was used to convert lactate in tissue culture supernatants to pyruvate, with the concomitant reduction of NAD^+ to NADH. The electron acceptor 1-methoxyphenazine methosulfate (MPMS) was then reduced by the generated NADH, thereby regenerating NAD+. Reduced 1-methoxyphenazine methosulfate is used in turn to reduce Water Soluble Tetrazolium 8 (WST8) to an orange WST8 formazan product. The assay is adapted from the publication “Application of WST-8 based colorimetric NAD(P)H detection for quantitative dehydrogenase assays” described in Chamchoy et al., BMC Biochemistry (2019) 20(1):4.
(§2) Cells were plated at 4,000 per well in 96-well plate in a medium of high glucose DMEM (PAN) supplemented with 10% FBS (PAN), 2 mM glutamine-alanine (PAN), 2 mM pyruvate (Sigma) and 10 mL/L penicillin-streptomycin (PAN) and grown at 37° C. in 0.5% O2, 5% CO2 and 75% humidity. For hypoxia, cells were grown and treated in the Whitley H35 Hypoxystation (Don Whitley Scientific) at 37° C. in 0.5% O2, 5% CO2 and 75% humidity. The next day, cells were induced with test compounds (FIG. 2: compounds of examples 3/16, 3/8, 10 at 10000, 3333, 1111, 370, 123, 41, 14, 5 and 1.5 nM; FIG. 7: compounds of examples 3/16, 3/8, 10 at 41, 14, 4.6 nM and Phenformin at 100, 50, 25, 12.5, 6.25 μM; FIGS. 8C and 8D: compounds of example 3/16, 3/8, 10, 3/19, 30 and 30/2 at 10000, 3333, 1111, 370, 123, 41, 14, 5 and 1.5 nM), as well as with vehicle (DMSO) only, for 48 hours. After this time, the medium was removed from the cells to measure extracellular lactate. To detect extracellular lactate, cell supernatants are diluted 1:5 in assay buffer (0.2 M tris, pH 8.2) by adding 10 μl cell supernatant+40 μl buffer in a 96-well plate. Assay substrate mix is prepared by adding NAD+ (3.75 mM), WST-8 (0.9 mM), MPMS (10 mM) and recombinant LDHA, expressed in E. coli as an N-terminal hexahistidine tagged fusion protein, is added to a final concentration of 0.8 μg/ml in assay buffer. Thereafter, 80 μl of substrate mix is added to 20 μl of diluted cell supernatant in a 96-well flat-bottomed plate and the absorbance at 460 nm determined at one minute intervals over a 30 minute period. A standard curve of known lactate concentrations of 10, 8, 6, 4, 1, 0.5 and 0.25 mM was constructed for each assay plate.

Panc02 and SKOV3 cells [4] = assay: Assay for inhibition of ATP production (FIGS. 8A and 8B); format: cell-based; settings: 48 hours treatment, 1.5 to 10000 nM
Description: The assay determines the amount of ATP in cells in culture.
Cells were plated at 4,000 per well in 96-well plate in a medium of high glucose DMEM (PAN) supplemented with 10% FBS (PAN), 2 mM glutamine-alanine (PAN), 2 mM pyruvate (Sigma) and 10 mL/L penicillin-streptomycin and grown at 37° C. in 0.5% O2, 5% CO2 and 75% humidity. For hypoxia, cells were grown and treated in the Whitley H35 Hypoxystation (Don Whitley Scientific) at 37° C. in 0.5% O2, 5% CO2 and 75% humidity. The next day, cells were induced with test compounds (FIG. 1: compounds of examples 3/16, 3/8, 10 at 10000, 3333, 1111, 370, 123, 41, 14, 5 and 1.5 nM; FIGS. 8A and 8B: compounds of example 3/19, 30 and 30/2 at 10000, 3333, 1111, 370, 123, 41, 14, 5 and 1.5 nM), as well as with vehicle (DMSO) only, for 48 hours. After this time, the medium was removed from the cells and intracellular ATP levels were determined using the Promega CellTiter-Glo 2.0 assay protocol (Promega, G9241). To estimate the effect of compounds on the ATP production, sample values were compared to the values of DMSO only. IC50 values were generated by plotting the luciferase counts against compound concentration.

lactate production = assay: Lactate production inhibition assay; format: cell-based; settings: summary of Table 1
Text: as §1, §2

Structure (SMILES)	incidence of lactic acidosis [1]	ER stress markers CHAC and CHOP/DDIT3 [2]	lactate levels (Panc02 and SKOV3 cells [3])	ATP production level (Panc02 and SKOV3 cells [4])	activity in inhibiting production of ATP and/or lactate (lactate production)
CN(C)C(=N)N=C(N)N [Metformin, metformin]	3 cases in 100,000 patients	–	–	–	–
O=C(Nc1ccc(F)c(NC(=O)c2cc3ccc(OC[C@H](O)CN4CCCC4)cc3s2)c1)c1ccc2c(c1)OCCO2 (single isomer, unassigned) [Example 30/2, N-(4-Fluoro-3-(6-(2-hydroxy-3-(pyrrolidin-1-yl)propoxy)benzo[b]thiophene-2-carboxamido)phenyl)-2,3-dihydrobenzo[b][1,4]dioxine-6-carboxamide]	–	time-dependent upregulation	dose-dependent downregulation	dose-dependent reduction	high activity
O=C(Nc1ccc(F)c(NC(=O)c2cc3ccc(OCC(O)CN4CCCC4)cc3s2)c1)c1ccc2c(c1)OCCO2 (racemic) [Example 30, N-(4-Fluoro-3-(6-(2-hydroxy-3-(pyrrolidin-1-yl)propoxy)benzo[b]thiophene-2-carboxamido)phenyl)-2,3-dihydrobenzo[b][1,4]dioxine-6-carboxamide]	–	time-dependent upregulation	dose-dependent downregulation	dose-dependent reduction	high activity
CCN1CCN(Cc2ccc3cc(C(=O)Nc4cc(NC(=O)c5ccc6c(c5)OCCO6)ccc4F)sc3n2)CC1 [3/19]	–	time-dependent upregulation	dose-dependent downregulation	dose-dependent reduction	high activity
[H]/N=C(/N)N/C(=N/[H])NCCc1ccccc1 [Phenformin, phenformin]	64 cases in 100,000 patients	–	–	–	–
